# Source: paper PMC6691788, “Design and synthesis of phthalazine-based compounds as potent anticancer agents with potential antiangiogenic activity via VEGFR-2 inhibition” (Journal of Enzyme Inhibition and Medicinal Chemistry, 2019)
# Experiments:
# Assay in all cases: NCI 60 cell panel SRB screen
# [1] = system: CCRF-CEM; type: cell-based, human
# [2] = system: HL-60(TB); type: cell-based; conditions: Homo sapiens
# [3] = system: RPMI-8226; type: cell-based; conditions: Homo sapiens
# [4] = system: SR; type: cell-based; conditions: Homo sapiens
# [5] = system: HOP-62; type: cell-based; conditions: Homo sapiens
# [6] = system: NCI-H23; type: cell-based; conditions: Homo sapiens
# [7] = system: NCI-H460; type: cell-based; conditions: Homo sapiens
# [8] = system: HCT-116; type: cell-based; conditions: Homo sapiens
# [9] = system: KM12; type: cell-based; conditions: Homo sapiens
# [10] = system: SW-620; type: cell-based; conditions: Homo sapiens
# [11] = system: U251; type: cell-based; conditions: Homo sapiens, U-251
# [12] = system: MALME-3M; type: cell-based; conditions: Homo sapiens
# [13] = system: SK-MEL-28; type: cell-based; conditions: Homo sapiens
# [14] = system: SK-MEL-5; type: cell-based; conditions: Homo sapiens
# [15] = system: UACC-257; type: cell-based; conditions: Homo sapiens
# [16] = system: UACC-62; type: cell-based
# [17] = system: IGROV1; type: cell-based; conditions: Homo sapiens, IGROV-1
# [18] = system: SK-OV-3; type: cell-based; conditions: Homo sapiens
# [19] = system: 786-0; type: cell-based; conditions: Homo sapiens
# [20] = system: ACHN; type: cell-based; conditions: Homo sapiens
# [21] = system: SN12C; type: cell-based; conditions: Homo sapiens
# [22] = system: PC-3; type: cell-based; conditions: Homo sapiens
# [23] = system: MDA-MB 231/ATCC; type: cell-based; conditions: Homo sapiens
# [24] = system: HS 578T; type: cell-based; conditions: Homo sapiens
# [25] = system: BT-549; type: cell-based; conditions: Homo sapiens
# [26] = 5 log dose, 48 h, read-out: LC50 (the source's name)
# [27] = single dose 10 μM, read-out: percent cell growth promotion
compound,measurement,setting,value
"Clc1ccc(Nc2nnc(CNc3ccccc3)c3ccccc23)cc1 [Compound 16a, N-(4-Chlorophenyl)-4-((phenylamino)methyl)phthalazin-1-amine]",TGI,[1]; 5 log dose,17.6 µM
same,GI50,"[1]; Homo sapiens, 5 log dose",3.53 µM
same,CC50,"[1]; Homo sapiens, 5 log dose, 48 h, read-out: LC50 (the source's name)",> 25 µM
same,activity at 10 µM,"[1]; Homo sapiens, single dose 10 μM, read-out: percent cell growth promotion",12.4%
same,GI50,[2]; 5 log dose,3.71 µM
same,IC (TGI),[2]; 5 log dose,13 µM
same,CC50,[2]; [26],> 25 µM
same,activity at 10 µM,[2]; [27],-13.3%
same,GI50,"[3]; RPMI-8226, 5 log dose",2100 nM
same,IC (TGI),"[3]; RPMI-8226, 5 log dose",7.71 µM
same,CC50,"[3]; RPMI-8226, 5 log dose, 48 h, read-out: LC50 (the source's name)",> 25 µM
same,activity at 10 µM,"[3]; RPMI-8226, single dose 10 μM, read-out: percent cell growth promotion",3.35%
same,GI50,[4]; 5 log dose,1750 nM
same,IC (TGI),[4]; 5 log dose,12.3 µM
same,CC50,[4]; [26],> 25 µM
same,activity at 10 µM,[4]; [27],-9.19%
same,GI50,"[5]; HOP-62, 5 log dose",2860 nM
same,IC (TGI),"[5]; HOP-62, 5 log dose",8.84 µM
same,CC50,"[5]; HOP-62, 5 log dose, 48 h, read-out: LC50 (the source's name)",> 25 µM
same,activity at 10 µM,"[5]; HOP-62, single dose 10 μM, read-out: percent cell growth promotion",27.4%
same,GI50,"[6]; NCI-H23, 5 log dose",2500 nM
same,IC (TGI),"[6]; NCI-H23, 5 log dose",16.4 µM
same,CC50,"[6]; NCI-H23, 5 log dose, 48 h, read-out: LC50 (the source's name)",> 25 µM
same,activity at 10 µM,"[6]; NCI-H23, single dose 10 μM, read-out: percent cell growth promotion",9.95%
same,GI50,"[7]; NCI-H460, 5 log dose",3.21 µM
same,IC (TGI),"[7]; NCI-H460, 5 log dose",9.98 µM
same,LC50 (concentration causing 50% cell kill),"[7]; NCI-H460, 5 log dose, 48 h",> 25 µM
same,activity at 10 µM,"[7]; NCI-H460, single dose 10 μM, read-out: percent cell growth promotion",17.6%
same,GI50,"[8]; HCT-116, 5 log dose",1200 nM
same,IC (TGI),"[8]; HCT-116, 5 log dose",5.02 µM
same,LC50 (lethal concentration 50%),"[8]; HCT-116, 5 log dose, 48 h",13.3 µM
same,activity at 10 µM,"[8]; HCT-116, single dose 10 μM, read-out: percent cell growth promotion",9.94%
same,GI50,"[9]; KM12, 5 log dose",3.05 µM
same,IC (TGI),"[9]; KM12, 5 log dose",9.91 µM
same,CC50,"[9]; KM12, 5 log dose, 48 h, read-out: LC50 (the source's name)",> 25 µM
same,activity at 10 µM,"[9]; KM12, single dose 10 μM, read-out: percent cell growth promotion",8.93%
same,GI50,"[10]; SW-620, 5 log dose",3.84 µM
same,IC (TGI),"[10]; SW-620, 5 log dose",11.1 µM
same,CC50,"[10]; SW-620, 5 log dose, 48 h, read-out: LC50 (the source's name)",> 25 µM
same,activity at 10 µM,"[10]; SW-620, single dose 10 μM, read-out: percent cell growth promotion",30.8%
same,GI50,"[11]; U251, 5 log dose",3.28 µM
same,IC (TGI),"[11]; U251, 5 log dose",7.33 µM
same,CC50,"[11]; U251, 5 log dose, 48 h, read-out: LC50 (the source's name)",16.4 µM
same,activity at 10 µM,"[11]; U251, single dose 10 μM, read-out: percent cell growth promotion",9.66%
same,GI50,[12]; Malme-3M,2660 nM
same,IC (TGI),"[12]; Malme-3M, read-out: TGI",9.92 µM
same,activity at 10 µM,"[12]; Malme-3M, read-out: percent cell growth promotion",-13.8%
same,CC50,"[12]; MALME-3M, 5 log dose, 48 h, read-out: LC50 (the source's name)",> 25 µM
same,GI50,[13]; SK-MEL-28,3.67 µM
same,IC (TGI),"[13]; SK-MEL-28, read-out: TGI",10.5 µM
same,activity at 10 µM,"[13]; SK-MEL-28, read-out: percent cell growth promotion",14.9%
same,CC50,"[13]; SK-MEL-28, 5 log dose, 48 h, read-out: LC50 (the source's name)",> 25 µM
same,GI50,[14]; SK-MEL-5,2080 nM
same,IC (TGI),"[14]; SK-MEL-5, read-out: TGI",5.27 µM
same,activity at 10 µM,"[14]; SK-MEL-5, read-out: percent cell growth promotion",-69.1%
same,CC50,"[14]; SK-MEL-5, 5 log dose, 48 h, read-out: LC50 (the source's name)",11.8 µM
same,GI50,[15]; UACC-257,2740 nM
same,IC (TGI),"[15]; UACC-257, read-out: TGI",6.87 µM
same,activity at 10 µM,"[15]; UACC-257, read-out: percent cell growth promotion",-6.49%
same,CC50,"[15]; UACC-257, 5 log dose, 48 h, read-out: LC50 (the source's name)",17.2 µM
same,GI50,"[16]; Homo sapiens, UACC-62",1250 nM
same,activity at 10 µM,"[16]; Homo sapiens, UACC-62, read-out: percent cell growth promotion",8.47%
same,CC50,"[16]; Homo sapiens, UACC-62, 5 log dose, 48 h, read-out: LC50 (the source's name)",19 µM
same,TGI,"[16]; UACC-62, 5 log dose",5.70 µM
same,GI50,"[17]; IGROV1, 5 log dose",1930 nM
same,IC (TGI),"[17]; IGROV1, 5 log dose",10.7 µM
same,CC50,"[17]; IGROV1, 5 log dose, 48 h, read-out: LC50 (the source's name)",> 25 µM
same,activity at 10 µM,"[17]; IGROV1, single dose 10 μM, read-out: percent cell growth promotion",19.1%
same,GI50,"[18]; SK-OV-3, 5 log dose",3.17 µM
same,IC (TGI),"[18]; SK-OV-3, 5 log dose",11.4 µM
same,CC50,"[18]; SK-OV-3, 5 log dose, 48 h, read-out: LC50 (the source's name)",> 25 µM
same,activity at 10 µM,"[18]; SK-OV-3, single dose 10 μM, read-out: percent cell growth promotion",22%
same,GI50,"[19]; 786-0, 5 log dose",4.01 µM
same,IC (TGI),"[19]; 786-0, 5 log dose",12.5 µM
same,CC50,"[19]; 786-0, 5 log dose, 48 h, read-out: LC50 (the source's name)",> 25 µM
same,activity at 10 µM,"[19]; 786-0, single dose 10 μM, read-out: percent cell growth promotion",21.4%
same,GI50,[20]; 5 log dose,3.1 µM
same,IC (TGI),[20]; 5 log dose,> 25 µM
same,CC50,[20]; [26],> 25 µM
same,activity at 10 µM,[20]; [27],7.07%
same,GI50,[21]; 5 log dose,3.95 µM
same,IC (TGI),[21]; 5 log dose,18.9 µM
same,CC50,[21]; [26],> 25 µM
same,activity at 10 µM,[21]; [27],28.9%
same,GI50,"[22]; PC-3, 5 log dose",14.4 µM
same,IC (TGI),"[22]; PC-3, 5 log dose",14.4 µM
same,CC50,"[22]; PC-3, 5 log dose, 48 h, read-out: LC50 (the source's name)",> 25 µM
same,activity at 10 µM,"[22]; PC-3, single dose 10 μM, read-out: percent cell growth promotion",7.15%
same,GI50,[23]; MDA-MB-231,1950 nM
same,IC (TGI),"[23]; MDA-MB-231, read-out: TGI",8.73 µM
same,activity at 10 µM,"[23]; MDA-MB-231, read-out: percent cell growth promotion",19.9%
same,CC50,"[23]; MDA-MB-231, MDA-MDA 231/ATCC, 5 log dose, 48 h, read-out: LC50 (the source's name)",> 25 µM
same,GI50,[24]; Hs-578T,2950 nM
same,IC (TGI),"[24]; Hs-578T, read-out: TGI",12.9 µM
same,activity at 10 µM,"[24]; Hs-578T, read-out: percent cell growth promotion",26.6%
same,CC50,"[24]; HS 578T, 5 log dose, 48 h, read-out: LC50 (the source's name)",> 25 µM
same,GI50,[25]; BT-549,2930 nM
same,IC (TGI),"[25]; BT-549, read-out: TGI",8.2 µM
same,activity at 10 µM,"[25]; BT-549, read-out: percent cell growth promotion",4.94%
same,CC50,"[25]; BT-549, 5 log dose, 48 h, read-out: LC50 (the source's name)",22.9 µM
